The values below come from patent US8138168B1 (Takeda Pharmaceutical Company Limited, priority 2007, dated 2012).

For the assay, the target named is T1, Recombinant human renin (Homo sapiens, UniProt P00797).
T1 construct: isolate the active form (residues 67-406); made in house; host or cells: FreeStyle 293-F cells (transient expression of pcDNA3.1(+)/hREN)
T1 sequence (P00797 67-406): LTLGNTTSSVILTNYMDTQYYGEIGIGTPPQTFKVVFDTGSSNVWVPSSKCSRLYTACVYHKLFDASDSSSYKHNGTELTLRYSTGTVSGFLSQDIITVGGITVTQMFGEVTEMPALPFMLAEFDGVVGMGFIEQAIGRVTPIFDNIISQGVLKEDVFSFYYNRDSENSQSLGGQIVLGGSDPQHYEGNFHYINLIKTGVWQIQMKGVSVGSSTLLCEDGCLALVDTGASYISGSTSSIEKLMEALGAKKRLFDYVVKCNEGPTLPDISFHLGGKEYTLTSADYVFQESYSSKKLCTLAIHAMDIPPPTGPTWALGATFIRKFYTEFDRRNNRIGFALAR
Description: In vitro enzymatic activity assay of renin inhibitors (fluorogenic peptide substrate). It is filed as biochemical. A digest of the protocol:
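Recombinant human renin (3 nM final) pre-incubated 10 min at 37 °C with compounds in pH 7.4 Hepes/EDTA/DTT/0.1 mg/mL BSA/Brij35 buffer (optionally plus 2% BSA), 5% DMSO final; fluorogenic QXL520/HiLyteFluo488 peptide substrate added.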

[1] abbreviates: read-out: IC50 of Exemplified Compounds Against Renin.

The structures appear in SMILES notation. Where two headings read alike, the source gives them in different places.

`COCCCn1c([C@@H]2CCCN(C(=O)[C@@H]3CN(C(=O)Oc4ccccc4Cl)C[C@H]3N)C2)nc2ccccc21` [Compound 390, (3S,4R)-2-chlorophenyl 3-amino-4-((R)-3-(1-(3-methoxypropyl)-1H-benzo[d]imidazol-2-yl)piperidine-1-carbonyl)pyrrolidine-1-carboxylate]: the IC50 is greater than 1000 nM.

Take `COCCCn1c([C@@H]2CCCN(C(=O)C[C@H](N)CNC(=O)Nc3ccc(Cl)cc3)C2)nc2ccccc21` [Compound 283, 1-((S)-2-amino-4-((R)-3-(1-(3-methoxypropyl)-1H-benzo[d]imidazol-2-yl)piperidin-1-yl)-4-oxobutyl)-3-(4-chlorophenyl)urea]: under setting [1], the IC50 was in the range of 100 to 1000 nM.

In the case of `COCCCn1c([C@@H]2CCCN(C(=O)[C@@H]3CN(S(=O)(=O)c4cc(C)ccc4C#N)C[C@H]3N)C2)nc2ccccc21` [Compound 403, 2-((3S,4R)-3-amino-4-((R)-3-(1-(3-methoxypropyl)-1H-benzo[d]imidazol-2-yl)piperidine-1-carbonyl)pyrrolidin-1-ylsulfonyl)-4-methylbenzonitrile], under setting [1], the IC50 was greater than 1000 nM.

Regarding `COCCCn1c([C@@H]2CCCN(C(=O)CC(CN)c3ccc(Cl)cc3)C2)nc2ccccc21` (stereo partly drawn) [Compound 93, 4-amino-3-(4-chlorophenyl)-1-((R)-3-(1-(3-methoxypropyl)-1H-benzo[d]imidazol-2-yl)piperidin-1-yl)butan-1-one], the IC50 under setting [1] was greater than 1000 nM.

For the compound `COCCCn1c([C@@H]2CCCN(C(=O)C[C@H](N)Cc3ccc4ccccc4c3)C2)nc2ccc(OC)nc21` [Compound 503, (3R)-3-amino-1-(3-(5-methoxy-3-(3-methoxypropyl)-3H-imidazo[4,5-b]pyridin-2-yl)piperidin-1-yl)-4-(naphthalen-2-yl)butan-1-one], under setting [1], the half-maximal inhibitory concentration (IC50) fell in the range of 100 to 1000 nM.

Take `COCCCn1c([C@@H]2CCCN(C(=O)C[C@H](N)CNC(=O)Nc3ccc4c(c3)OCCO4)C2)nc2ccccc21` [Compound 258, 1-((S)-2-amino-4-((R)-3-(1-(3-methoxypropyl)-1H-benzo[d]imidazol-2-yl)piperidin-1-yl)-4-oxobutyl)-3-(2,3-dihydrobenzo[b][1,4]dioxin-6-yl)urea]: the concentration for half-maximal inhibition (IC50) under setting [1] was less than 100 nM.

On to `COCCCn1c([C@@H]2CCCN(C(=O)C[C@H](N)CNS(=O)(=O)c3ccccc3OC)C2)nc2ccccc21` [Compound 324, N-((S)-2-amino-4-((R)-3-(1-(3-methoxypropyl)-1H-benzo[d]imidazol-2-yl)piperidin-1-yl)-4-oxobutyl)-2-methoxybenzenesulfonamide], for which the concentration for half-maximal inhibition (IC50) under setting [1] was greater than 1000 nM.

As for `COCCCn1c([C@@H]2CCCN(C(=O)C[C@H](N)Cc3ccc(N4CCN(c5ccccc5)CC4)cc3)C2)nc2ccccc21` [Compound 231, (R)-3-amino-1((R)-3-(1-(3-methoxypropyl)-1H-benzo[d]imidazol-2-yl)piperidin-1-yl)-4-(4-(4-phenylpiperazin-1-yl)phenyl)butan-1-one], under setting [1], the IC50 lay in the range of 100 to 1000 nM.

As to `N[C@@H](CC(=O)N1CCCC(c2nc3ccccc3[nH]2)C1)Cc1ccc(Cl)c(Cl)c1` (stereo partly drawn) [Compound 36, (3R)-1-(3-(1H-benzo[d]imidazol-2-yl)piperidin-1-yl)-3-amino-4-(3,4-dichlorophenyl)butan-1-one], under setting [1], the 50% inhibitory concentration (IC50) was greater than 1000 nM.

Turning to `N[C@@H](CC(=O)N1CCCC(c2nc3ccccc3[nH]2)C1)c1cccc([N+](=O)[O-])c1` (stereo partly drawn) [Compound 40, (3S)-1-(3-(1H-benzo[d]imidazol-2-yl)piperidin-1-yl)-3-amino-3-(3-nitrophenyl)propan-1-one], under setting [1], the half-inhibitory concentration (IC50) was greater than 1000 nM.

On to `COCCCn1c([C@@H]2CCCN(C(=O)C[C@H](N)Cc3ccc(-c4ccc(NC(N)=O)cc4)cc3)C2)nc2ccccc21` [Compound 172, 1-(4′-((R)-2-amino-4-((R)-3-(1-(3-methoxypropyl)-1H-benzo[d]imidazol-2-yl)piperidin-1-yl)-4-oxobutyl)biphenyl-4-yl)urea], for which, under setting [1], the half-inhibitory concentration (IC50) was less than 100 nM.

Consider `COCCCn1c([C@@H]2CCCN(C(=O)C[C@H](N)Cc3ccc4ccccc4c3)C2)nc2cc(Cl)c(Cl)cc21` [Compound 81, (R)-3-amino-1((R)-3-(5,6-dichloro-1-(3-methoxypropyl)-1H-benzo[d]imidazol-2-yl)piperidin-1-yl)-4-(naphthalen-2-yl)butan-1-one], for which the concentration for half-maximal inhibition (IC50) under setting [1] was 100 to 1000 nM.

Take `COCCCn1c([C@@H]2CCCN(C(=O)C[C@H](N)CNC(=O)c3cccc(OC)c3)C2)nc2ccccc21` [Compound 310, N-((S)-2-amino-4-((R)-3-(1-(3-methoxypropyl)-1H-benzo[d]imidazol-2-yl)piperidin-1-yl)-4-oxobutyl)-3-methoxybenzamide]: the IC50 under setting [1] lay within 100 to 1000 nM.

Turning to `N[C@@H](CC(=O)N1CCCC(c2nc3ccccc3[nH]2)C1)Cc1ccc([N+](=O)[O-])cc1` (stereo partly drawn) [Compound 39, (3R)-1-(3-(1H-benzo[d]imidazol-2-yl)piperidin-1-yl)-3-amino-4-(4-nitrophenyl)butan-1-one], the half-maximal inhibitory concentration (IC50) under setting [1] is greater than 1000 nM.

For the compound `CC(=O)NCCn1c([C@@H]2CCCN(C(=O)C[C@H](N)Cc3ccc(-c4ccnc(O)c4)cc3)C2)nc2ccccc21` [Compound 461, N-(2-(2-((R)-1-((R)-3-amino-4-(4-(2-hydroxypyridin-4-yl)phenyl)butanoyl)piperidin-3-yl)-1H-benzo[d]imidazol-1-yl)ethyl)acetamide], the IC50 under setting [1] was 100 to 1000 nM.

With `COCCCn1c([C@@H]2CCCN(C(=O)[C@@H]3CN(S(=O)(=O)c4ccc([N+](=O)[O-])cc4OC)C[C@H]3N)C2)nc2ccccc21` [Compound 411, ((3R,4S)-4-amino-1-(2-methoxy-4-nitrophenylsulfonyl)pyrrolidin-3-yl)((R)-3-(1-(3-methoxypropyl)-1H-benzo[d]imidazol-2-yl)piperidin-1-yl)methanone], under setting [1], the IC50 is greater than 1000 nM.

In the case of `COCCCn1c([C@@H]2CCCN(C(=O)C[C@H](N)CNC(=O)C3CCCC3)C2)nc2ccccc21` [Compound 331, N-((S)-2-amino-4-((R)-3-(1-(3-methoxypropyl)-1H-benzo[d]imidazol-2-yl)piperidin-1-yl)-4-oxobutyl)cyclopentanecarboxamide], under setting [1], the 50% inhibitory concentration (IC50) was greater than 1000 nM.

For `COCCCn1c([C@@H]2CCCN(C(=O)[C@@H]3CN(C(=O)c4cc5ccccc5o4)C[C@H]3N)C2)nc2ccccc21` [Compound 406, ((3R,4S)-4-amino-1-(benzofuran-2-carbonyl)pyrrolidin-3-yl)((R)-3-(1-(3-methoxypropyl)-1H-benzo[d]imidazol-2-yl)piperidin-1-yl)methanone], the half-maximal inhibitory concentration (IC50) under setting [1] is greater than 1000 nM.

As for `CCOc1nc(-c2ccc(C[C@@H](N)CC(=O)N3CCC[C@@H](c4nc5ccccc5n4CCCOC)C3)cc2)cs1` [Compound 200, (R)-3-amino-4-(4-(2-ethoxythiazol-4-yl)phenyl)-1-((R)-3-(1-(3-methoxypropyl)-1H-benzo[d]imidazol-2-yl)piperidin-1-yl)butan-1-one], the half-maximal inhibitory concentration (IC50) under setting [1] is less than 100 nM.

For the compound `COCCCn1c([C@@H]2CCCN(C(=O)[C@@H]3CN(S(=O)(=O)c4ccccc4C(F)(F)F)C[C@H]3N)C2)nc2ccccc21` [Compound 402, ((3R,4S)-4-amino-1-(2-(trifluoromethyl)phenylsulfonyl)pyrrolidin-3-yl)((R)-3-(1-(3-methoxypropyl)-1H-benzo[d]imidazol-2-yl)piperidin-1-yl)methanone], the half-maximal inhibitory concentration (IC50) under setting [1] was greater than 1000 nM.

By IC50 is commonly meant the concentration that gives 50% inhibition.
